Where two headings read alike, the source gives them in different places.
Assays:
Assay in all cases: biochemical
Parameters in all cases: Reaction Biology 371-kinase panel at Km ATP, per cent enzyme activity relative to DMSO, single dose in duplicate
Settings in all cases: duplicate measurements, Km ATP
[1] = biological target: ERK2/MAPK1 (Homo sapiens, UniProt P28482)
Description: (§1) To assess kinase selectivity, we screened TP-5801 (300 nM) against a panel of 371 kinases in vitro. […] In addition to TNK1, only 7 other kinases were inhibited by more than 90% (Supplementary Fig. 8 and Supplementary Data 2). […] The resulting % Enzyme activity (relative to DMSO controls) were plotted in GraphPad and IC50 values were determined by sigmoidal dose-response (variable slope) curve fits, with a bottom constraint of 0.

[2] = biological target: DDR1 (Homo sapiens, UniProt Q08345)
Description: as §1

[3] = biological target: T1, CK2a (Homo sapiens, UniProt P68400)
T1 construct: gene CSNK2A1
Description: as §1

[4] = biological target: IKKe/IKBKE (Homo sapiens, UniProt Q14164)
Description: as §1

[5] = biological target: AKT2 (Homo sapiens, UniProt P31751)
Description: as §1

[6] = biological target: ULK1 (Homo sapiens, UniProt O75385)
Description: as §1

[7] = biological target: ULK3 (Homo sapiens, UniProt Q6PHR2)
Description: as §1

[8] = biological target: ITK (Homo sapiens, UniProt Q08881)
Description: as §1

[9] = biological target: COT1/MAP3K8 (Homo sapiens, UniProt P41279)
Description: as §1

[10] = biological target: T2, TNK1 (Homo sapiens, UniProt Q13470)
T2 sequence (Q13470 1-666): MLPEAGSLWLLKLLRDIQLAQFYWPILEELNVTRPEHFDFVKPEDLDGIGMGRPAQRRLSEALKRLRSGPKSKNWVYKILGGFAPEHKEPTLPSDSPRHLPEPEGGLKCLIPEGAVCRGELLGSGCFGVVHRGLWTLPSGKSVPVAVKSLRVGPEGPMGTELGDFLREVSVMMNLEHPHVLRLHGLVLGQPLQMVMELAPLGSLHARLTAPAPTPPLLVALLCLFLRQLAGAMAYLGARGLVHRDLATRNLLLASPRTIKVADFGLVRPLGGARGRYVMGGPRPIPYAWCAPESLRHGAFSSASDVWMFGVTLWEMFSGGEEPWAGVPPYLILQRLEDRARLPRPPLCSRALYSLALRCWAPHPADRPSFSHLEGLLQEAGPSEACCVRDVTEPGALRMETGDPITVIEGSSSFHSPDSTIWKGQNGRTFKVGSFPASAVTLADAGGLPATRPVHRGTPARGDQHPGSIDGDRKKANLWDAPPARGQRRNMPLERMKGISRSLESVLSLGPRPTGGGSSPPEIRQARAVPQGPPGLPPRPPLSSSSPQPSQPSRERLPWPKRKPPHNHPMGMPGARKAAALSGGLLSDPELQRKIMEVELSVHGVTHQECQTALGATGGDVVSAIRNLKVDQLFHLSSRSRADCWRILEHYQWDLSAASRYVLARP
Description: as §1

[11] = biological target: SNRK (Homo sapiens, UniProt Q9NRH2)
Description: as §1

[12] = biological target: CDK1/cyclin E (Homo sapiens, UniProt P06493)
Description: as §1

[13] = biological target: IRR/INSRR (Homo sapiens, UniProt P14616)
Description: as §1

[14] = biological target: p70S6Kb/RPS6KB2 (Homo sapiens, UniProt Q9UBS0)
Description: as §1

[15] = biological target: PBK/TOPK (Homo sapiens, UniProt Q96KB5)
Description: as §1

[16] = read-out: % Enzyme Activity (relative to DMSO controls) / TP-0005801 (0.3µM) / Data 1
[17] = read-out: % Enzyme Activity (relative to DMSO controls) / TP-0005801 (0.3µM) / Data 2

Chain of ULK3 (Q6PHR2 whole entry): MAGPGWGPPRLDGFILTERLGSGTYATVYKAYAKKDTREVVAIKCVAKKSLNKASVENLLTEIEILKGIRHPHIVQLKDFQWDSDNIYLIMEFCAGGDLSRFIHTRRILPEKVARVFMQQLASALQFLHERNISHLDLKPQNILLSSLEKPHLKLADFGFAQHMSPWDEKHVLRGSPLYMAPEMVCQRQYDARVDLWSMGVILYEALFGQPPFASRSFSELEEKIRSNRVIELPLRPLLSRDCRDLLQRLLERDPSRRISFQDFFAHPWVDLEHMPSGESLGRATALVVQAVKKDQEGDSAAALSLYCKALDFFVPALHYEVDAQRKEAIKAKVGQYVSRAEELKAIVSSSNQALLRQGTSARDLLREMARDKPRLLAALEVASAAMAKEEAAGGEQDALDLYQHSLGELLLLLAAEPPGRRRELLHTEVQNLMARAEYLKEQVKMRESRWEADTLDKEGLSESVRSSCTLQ
Chain of p70S6Kb/RPS6KB2 (Q9UBS0 whole entry): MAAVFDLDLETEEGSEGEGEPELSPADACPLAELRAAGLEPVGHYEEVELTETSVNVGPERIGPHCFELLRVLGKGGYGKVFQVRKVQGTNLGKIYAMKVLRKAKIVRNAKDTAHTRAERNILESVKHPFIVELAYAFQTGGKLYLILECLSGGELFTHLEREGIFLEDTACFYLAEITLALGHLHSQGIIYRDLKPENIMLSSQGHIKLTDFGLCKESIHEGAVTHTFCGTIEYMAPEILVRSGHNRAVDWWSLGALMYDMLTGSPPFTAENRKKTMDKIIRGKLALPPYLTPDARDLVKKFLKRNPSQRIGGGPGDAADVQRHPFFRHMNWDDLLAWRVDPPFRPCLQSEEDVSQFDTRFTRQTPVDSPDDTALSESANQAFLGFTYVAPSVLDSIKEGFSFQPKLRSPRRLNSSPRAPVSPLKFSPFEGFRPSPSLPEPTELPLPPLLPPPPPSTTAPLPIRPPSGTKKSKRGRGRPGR
Chain of ITK (Q08881 whole entry): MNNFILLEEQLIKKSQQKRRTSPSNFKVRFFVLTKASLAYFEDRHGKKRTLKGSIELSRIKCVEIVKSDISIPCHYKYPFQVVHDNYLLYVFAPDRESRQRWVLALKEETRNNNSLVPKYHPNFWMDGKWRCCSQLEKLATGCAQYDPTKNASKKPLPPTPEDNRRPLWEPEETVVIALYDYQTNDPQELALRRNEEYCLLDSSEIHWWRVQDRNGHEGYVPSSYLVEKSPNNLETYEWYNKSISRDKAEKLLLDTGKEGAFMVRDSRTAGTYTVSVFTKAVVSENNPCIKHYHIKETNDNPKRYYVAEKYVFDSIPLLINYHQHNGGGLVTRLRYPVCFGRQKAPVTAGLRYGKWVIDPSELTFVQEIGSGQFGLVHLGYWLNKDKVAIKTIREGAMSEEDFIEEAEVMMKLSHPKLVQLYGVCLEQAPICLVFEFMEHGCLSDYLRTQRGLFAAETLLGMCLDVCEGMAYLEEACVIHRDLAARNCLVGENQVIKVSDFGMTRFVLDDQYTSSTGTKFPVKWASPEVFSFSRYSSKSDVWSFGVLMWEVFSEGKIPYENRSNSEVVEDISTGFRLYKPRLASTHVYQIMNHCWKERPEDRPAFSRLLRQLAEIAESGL
Chain of COT1/MAP3K8 (P41279 whole entry): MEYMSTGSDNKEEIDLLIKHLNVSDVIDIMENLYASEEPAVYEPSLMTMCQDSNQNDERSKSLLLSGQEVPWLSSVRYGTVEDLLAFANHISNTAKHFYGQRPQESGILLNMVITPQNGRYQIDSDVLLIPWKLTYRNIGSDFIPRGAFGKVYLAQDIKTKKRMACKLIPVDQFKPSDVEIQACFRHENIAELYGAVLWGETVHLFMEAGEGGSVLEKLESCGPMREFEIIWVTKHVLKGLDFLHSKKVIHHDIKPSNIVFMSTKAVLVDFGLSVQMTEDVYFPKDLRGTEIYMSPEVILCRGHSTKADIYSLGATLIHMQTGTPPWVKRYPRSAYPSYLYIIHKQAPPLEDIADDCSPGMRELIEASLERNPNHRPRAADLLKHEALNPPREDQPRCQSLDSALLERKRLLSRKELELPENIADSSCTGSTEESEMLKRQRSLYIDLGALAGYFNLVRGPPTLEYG
Chain of IRR/INSRR (P14616 whole entry): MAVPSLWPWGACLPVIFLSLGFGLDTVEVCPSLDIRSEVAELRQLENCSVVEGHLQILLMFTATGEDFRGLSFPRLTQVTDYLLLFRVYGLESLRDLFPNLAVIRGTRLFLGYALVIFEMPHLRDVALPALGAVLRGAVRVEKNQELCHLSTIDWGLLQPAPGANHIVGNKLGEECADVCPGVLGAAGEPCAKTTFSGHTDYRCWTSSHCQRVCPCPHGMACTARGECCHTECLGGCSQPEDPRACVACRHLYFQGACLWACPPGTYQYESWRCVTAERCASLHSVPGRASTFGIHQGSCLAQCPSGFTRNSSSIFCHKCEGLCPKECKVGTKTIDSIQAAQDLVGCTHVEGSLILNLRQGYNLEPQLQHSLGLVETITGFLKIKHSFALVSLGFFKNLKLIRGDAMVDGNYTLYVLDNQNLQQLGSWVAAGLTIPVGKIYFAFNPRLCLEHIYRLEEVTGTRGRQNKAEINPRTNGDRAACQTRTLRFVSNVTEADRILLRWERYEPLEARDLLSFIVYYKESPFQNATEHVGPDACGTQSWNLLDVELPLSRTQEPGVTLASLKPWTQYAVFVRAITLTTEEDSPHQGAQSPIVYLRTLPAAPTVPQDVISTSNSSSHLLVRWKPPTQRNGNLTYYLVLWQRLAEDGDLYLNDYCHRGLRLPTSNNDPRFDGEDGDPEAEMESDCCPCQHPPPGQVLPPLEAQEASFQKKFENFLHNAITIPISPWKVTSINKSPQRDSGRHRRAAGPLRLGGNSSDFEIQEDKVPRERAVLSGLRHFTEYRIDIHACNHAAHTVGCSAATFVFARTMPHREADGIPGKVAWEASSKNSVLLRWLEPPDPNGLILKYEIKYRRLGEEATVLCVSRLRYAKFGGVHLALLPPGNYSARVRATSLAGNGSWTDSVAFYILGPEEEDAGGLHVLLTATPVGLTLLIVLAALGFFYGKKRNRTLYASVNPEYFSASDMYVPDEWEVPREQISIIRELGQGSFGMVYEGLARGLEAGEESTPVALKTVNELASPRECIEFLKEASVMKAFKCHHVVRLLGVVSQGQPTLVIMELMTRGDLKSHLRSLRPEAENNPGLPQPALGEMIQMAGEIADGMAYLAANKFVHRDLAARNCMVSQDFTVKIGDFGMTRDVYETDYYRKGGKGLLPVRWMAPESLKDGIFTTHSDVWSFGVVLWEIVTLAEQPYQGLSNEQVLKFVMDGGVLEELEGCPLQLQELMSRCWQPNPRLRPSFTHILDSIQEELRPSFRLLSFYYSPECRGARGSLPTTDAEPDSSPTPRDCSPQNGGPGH
T1 sequence (P68400 whole entry): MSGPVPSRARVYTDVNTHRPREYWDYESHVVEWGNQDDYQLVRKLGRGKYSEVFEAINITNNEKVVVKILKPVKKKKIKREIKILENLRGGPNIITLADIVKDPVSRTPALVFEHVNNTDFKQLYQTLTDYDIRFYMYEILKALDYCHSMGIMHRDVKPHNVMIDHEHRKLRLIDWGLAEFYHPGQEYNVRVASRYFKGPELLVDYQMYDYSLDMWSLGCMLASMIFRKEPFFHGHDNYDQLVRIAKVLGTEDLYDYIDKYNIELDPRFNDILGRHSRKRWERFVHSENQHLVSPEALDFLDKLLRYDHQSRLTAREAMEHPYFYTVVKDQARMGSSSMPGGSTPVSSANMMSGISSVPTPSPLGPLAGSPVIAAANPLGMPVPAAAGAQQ
Chain of ERK2/MAPK1 (P28482 whole entry): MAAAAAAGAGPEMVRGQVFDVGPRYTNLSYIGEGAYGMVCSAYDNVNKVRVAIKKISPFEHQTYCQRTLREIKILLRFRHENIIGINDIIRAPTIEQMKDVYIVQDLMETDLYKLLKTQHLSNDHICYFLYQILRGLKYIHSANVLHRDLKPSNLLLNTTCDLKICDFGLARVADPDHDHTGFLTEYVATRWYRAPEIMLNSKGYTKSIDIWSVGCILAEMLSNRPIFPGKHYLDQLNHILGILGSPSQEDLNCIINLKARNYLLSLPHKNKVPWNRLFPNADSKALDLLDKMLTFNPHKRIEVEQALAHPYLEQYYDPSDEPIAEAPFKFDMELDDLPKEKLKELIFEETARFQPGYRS
Chain of PBK/TOPK (Q96KB5 whole entry): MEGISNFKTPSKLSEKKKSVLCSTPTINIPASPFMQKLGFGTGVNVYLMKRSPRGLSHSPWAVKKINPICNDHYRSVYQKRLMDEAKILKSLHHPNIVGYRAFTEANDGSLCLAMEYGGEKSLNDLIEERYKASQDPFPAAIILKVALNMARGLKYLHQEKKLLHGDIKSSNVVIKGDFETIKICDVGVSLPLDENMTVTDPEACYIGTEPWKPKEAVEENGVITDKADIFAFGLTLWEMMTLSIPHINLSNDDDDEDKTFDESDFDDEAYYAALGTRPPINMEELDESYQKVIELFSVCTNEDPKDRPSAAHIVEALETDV
Chain of AKT2 (P31751 whole entry): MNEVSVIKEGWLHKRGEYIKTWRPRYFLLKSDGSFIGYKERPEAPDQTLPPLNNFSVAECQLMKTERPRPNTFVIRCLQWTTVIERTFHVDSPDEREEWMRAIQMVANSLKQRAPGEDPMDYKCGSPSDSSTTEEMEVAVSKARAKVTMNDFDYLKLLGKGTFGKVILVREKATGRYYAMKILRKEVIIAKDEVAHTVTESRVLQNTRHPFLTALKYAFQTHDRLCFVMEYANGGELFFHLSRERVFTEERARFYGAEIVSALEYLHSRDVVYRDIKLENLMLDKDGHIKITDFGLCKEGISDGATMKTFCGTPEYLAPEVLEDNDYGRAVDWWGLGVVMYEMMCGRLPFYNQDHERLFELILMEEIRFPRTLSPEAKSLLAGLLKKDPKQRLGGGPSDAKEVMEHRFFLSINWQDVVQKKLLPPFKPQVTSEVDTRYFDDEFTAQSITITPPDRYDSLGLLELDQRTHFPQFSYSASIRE

remaining activity at 0.3 µM [1, 16]: 87.1% | remaining activity at 0.3 µM [1, 17]: 86.1% | remaining activity at 0.3 µM [2, 16]: 74.4% | remaining activity at 0.3 µM [2, 17]: 74.1% | remaining activity at 0.3 µM [3, 16]: 42.4% | remaining activity at 0.3 µM [3, 17]: 41.8% | remaining activity at 0.3 µM [4, 16]: 99.7% | remaining activity at 0.3 µM [4, 17]: 94.2% | remaining activity at 0.3 µM [5, 16]: 100% | remaining activity at 0.3 µM [5, 17]: 99.9% | remaining activity at 0.3 µM [6, 16]: 49.9% | remaining activity at 0.3 µM [6, 17]: 49.7% | remaining activity at 0.3 µM [7, 16]: 43.8% | remaining activity at 0.3 µM [7, 17]: 40.1% | remaining activity at 0.3 µM [8, 16]: 107% | remaining activity at 0.3 µM [8, 17]: 103% | remaining activity at 0.3 µM [9, 16]: 100% | remaining activity at 0.3 µM [9, 17]: 97.5% | remaining activity at 0.3 µM [10, 16]: 0.98% | remaining activity at 0.3 µM [10, 17]: 0.83% | remaining activity at 0.3 µM [11, 16]: 98.8% | remaining activity at 0.3 µM [11, 17]: 98.6% | remaining activity at 0.3 µM [12, 16]: 97.2% | remaining activity at 0.3 µM [12, 17]: 94.9% | remaining activity at 0.3 µM [13, 16]: 66.7% | remaining activity at 0.3 µM [13, 17]: 65.2% | remaining activity at 0.3 µM [14, 16]: 95.7% | remaining activity at 0.3 µM [14, 17]: 90.1% | remaining activity at 0.3 µM [15, 16]: 107% | remaining activity at 0.3 µM [15, 17]: 98.9%
SMILES: COc1cc(N2CCN(C)CC2)c(C)cc1Nc1ncc(Br)c(Nc2cccnc2N(C)C)n1 [TP-5801]
